Measurements: ChEMBL document CHEMBL1201862, “PubChem BioAssay data set” (2004)
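Test compounds were applied to cells in 96-well plates for 48 hours at 5 doses. At the GI50, growth is halved.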 Calls of active or inactive are those of the source. No stated cut-off is given here; in the data, active = GI50 up to about 1.1 µM and inactive = higher.

Legend:
Assay in all cases: growth of human tumour cells (NCI), 48 h
NCI/ADR-RES = system: NCI/ADR-RES
OVCAR-4 = system: OVCAR-4
ACHN = system: ACHN
786-0 = system: 786-0
SN12C = system: SN12C
SF-539 = system: SF-539
HL-60 = system: HL-60
MDA-N = system: MDA-N
Hs-578T = system: Hs-578T
OVCAR-3 = system: OVCAR-3
T47D = system: T47D
SK-MEL-5 = system: SK-MEL-5
U-251 = system: U-251
MCF7 = system: MCF7
SF-295 = system: SF-295
SK-MEL-28 = system: SK-MEL-28
IGROV-1 = system: IGROV-1
M14 = system: M14
SK-OV-3 = system: SK-OV-3
HCT-15 = system: HCT-15
UACC-257 = system: UACC-257
HOP-62 = system: HOP-62
NCI-H226 = system: NCI-H226
HT-29 = system: HT-29
UACC-62 = system: UACC-62
COLO 205 = system: COLO 205
OVCAR-8 = system: OVCAR-8
MDA-MB-435 = system: MDA-MB-435
A549 = system: A549
SNB-19 = system: SNB-19
K562 = system: K562
MDA-MB-231 = system: MDA-MB-231
SW-620 = system: SW-620
HOP-92 = system: HOP-92
UO-31 = system: UO-31
HCT-116 = system: HCT-116
OVCAR-5 = system: OVCAR-5
SF-268 = system: SF-268
EKVX = system: EKVX
NCI-H522 = system: NCI-H522
A498 = system: A498
DU-145 = system: DU-145
SK-MEL-2 = system: SK-MEL-2
SR = system: SR
MOLT-4 = system: MOLT-4
CAKI-1 = system: CAKI-1
HCC 2998 = system: HCC 2998
BT-549 = system: BT-549
LOX IMVI = system: LOX IMVI
KM12 = system: KM12
CCRF-CEM = system: CCRF-CEM
NCI-H460 = system: NCI-H460
RPMI-8226 = system: RPMI-8226
NCI-H23 = system: NCI-H23
PC-3 = system: PC-3
Malme-3M = system: Malme-3M
TK-10 = system: TK-10
SNB-75 = system: SNB-75

SMILES: COc1ccc(C2SCC(=O)N2c2ccc(-c3ccc(-n4c(-c5ccccc5)nc5ccccc5c4=O)cc3)cc2)cc1 (stereo unspecified)
- GI50 (NCI/ADR-RES): 96.2 µM (inactive)
- GI50 (OVCAR-4): 42.4 µM (inactive)
- GI50 (ACHN): 70 µM (inactive)
- GI50 (786-0): 36.1 µM (inactive)
- GI50 (SN12C): > 100 µM (inactive)
- GI50 (SF-539): 74.8 µM (inactive)
- GI50 (HL-60): 54.3 µM (inactive)
- GI50 (MDA-N): 65.9 µM (inactive)
- GI50 (Hs-578T): 25.9 µM (inactive)
- GI50 (OVCAR-3): 17.5 µM (inactive)
- GI50 (T47D): 21 µM (inactive)
- GI50 (SK-MEL-5): 26.9 µM (inactive)
- GI50 (U-251): 48.5 µM (inactive)
- GI50 (MCF7): 26.1 µM (inactive)
- GI50 (SF-295): 47 µM (inactive)
- GI50 (SK-MEL-28): > 100 µM (inactive)
- GI50 (IGROV-1): 62.2 µM (inactive)
- GI50 (M14): 85.7 µM (inactive)
- GI50 (SK-OV-3): > 100 µM (inactive)
- GI50 (HCT-15): 44.5 µM
- GI50 (UACC-257): > 100 µM (inactive)
- GI50 (HOP-62): 69.8 µM (inactive)
- GI50 (NCI-H226): 65.3 µM (inactive)
- GI50 (HT-29): 12.7 µM (inactive)
- GI50 (UACC-62): 33 µM (inactive)
- GI50 (COLO 205): 39 µM (inactive)
- GI50 (OVCAR-8): 78.7 µM (inactive)
- GI50 (MDA-MB-435): 49.7 µM (inactive)
- GI50 (A549): > 100 µM (inactive)
- GI50 (SNB-19): > 100 µM (inactive)
- GI50 (K562): 30.4 µM (inactive)
- GI50 (MDA-MB-231): 54.6 µM (inactive)
- GI50 (SW-620): 94.4 µM (inactive)
- GI50 (HOP-92): 15.7 µM (inactive)
- GI50 (UO-31): > 100 µM (inactive)
- GI50 (HCT-116): 57.9 µM (inactive)
- GI50 (OVCAR-5): 28.5 µM (inactive)
- GI50 (SF-268): > 100 µM (inactive)
- GI50 (EKVX): > 100 µM (inactive)
- GI50 (NCI-H522): 30.3 µM (inactive)
- GI50 (A498): > 100 µM (inactive)
- GI50 (DU-145): 42 µM (inactive)
- GI50 (SK-MEL-2): 26.6 µM (inactive)
- GI50 (SR): 19.5 µM (inactive)
- GI50 (MOLT-4): 31.8 µM (inactive)
- GI50 (CAKI-1): 95.3 µM (inactive)
- GI50 (HCC 2998): 30.1 µM (inactive)
- GI50 (BT-549): 22.8 µM (inactive)
- GI50 (LOX IMVI): > 100 µM (inactive)
- GI50 (KM12): 21.1 µM (inactive)
- GI50 (CCRF-CEM): 28.6 µM (inactive)
- GI50 (NCI-H460): 34.4 µM (inactive)
- GI50 (RPMI-8226): 21.6 µM (inactive)
- GI50 (NCI-H23): 68.9 µM (inactive)
- GI50 (PC-3): 34 µM (inactive)
- GI50 (Malme-3M): 48.2 µM (inactive)
- GI50 (TK-10): 45.2 µM (inactive)

SMILES: COc1ccc(OC)c2sc(N3C(=O)/C(=C/c4ccc(SC)cc4)N=C3c3ccccc3)nc12
- GI50 (NCI/ADR-RES): 29.3 µM (inactive)
- GI50 (OVCAR-4): 28.5 µM (inactive)
- GI50 (ACHN): 28.9 µM (inactive)
- GI50 (786-0): 43.3 µM (inactive)
- GI50 (SN12C): 24.9 µM (inactive)
- GI50 (SF-539): 23.8 µM (inactive)
- GI50 (HL-60): 25.5 µM (inactive)
- GI50 (MDA-N): 20.3 µM (inactive)
- GI50 (Hs-578T): 17.7 µM (inactive)
- GI50 (OVCAR-3): 20.4 µM (inactive)
- GI50 (T47D): 26.3 µM (inactive)
- GI50 (SK-MEL-5): 15.6 µM (inactive)
- GI50 (U-251): 17.5 µM (inactive)
- GI50 (MCF7): 20.3 µM (inactive)
- GI50 (SF-295): 42 µM (inactive)
- GI50 (SK-MEL-28): > 100 µM (inactive)
- GI50 (IGROV-1): 23.3 µM (inactive)
- GI50 (M14): 21.2 µM (inactive)
- GI50 (SK-OV-3): 30.5 µM (inactive)
- GI50 (HCT-15): 43.1 µM
- GI50 (UACC-257): 17.3 µM (inactive)
- GI50 (HOP-62): 16.4 µM (inactive)
- GI50 (HT-29): 23.1 µM (inactive)
- GI50 (UACC-62): 31.5 µM (inactive)
- GI50 (COLO 205): 58.5 µM (inactive)
- GI50 (OVCAR-8): 27.7 µM (inactive)
- GI50 (MDA-MB-435): 17.2 µM (inactive)
- GI50 (A549): 22.2 µM (inactive)
- GI50 (SNB-19): 26.4 µM (inactive)
- GI50 (K562): > 100 µM (inactive)
- GI50 (MDA-MB-231): > 100 µM (inactive)
- GI50 (SNB-75): 18.3 µM (inactive)
- GI50 (SW-620): 27.4 µM (inactive)
- GI50 (HOP-92): 55.7 µM (inactive)
- GI50 (UO-31): 24.2 µM (inactive)
- GI50 (HCT-116): 18.7 µM (inactive)
- GI50 (OVCAR-5): 47.3 µM (inactive)
- GI50 (SF-268): 14.1 µM (inactive)
- GI50 (EKVX): 32.1 µM (inactive)
- GI50 (A498): > 100 µM (inactive)
- GI50 (DU-145): 39.9 µM (inactive)
- GI50 (SK-MEL-2): 20.8 µM (inactive)
- GI50 (SR): 26.4 µM (inactive)
- GI50 (MOLT-4): 22.3 µM (inactive)
- GI50 (CAKI-1): 96.2 µM (inactive)
- GI50 (HCC 2998): 71.4 µM (inactive)
- GI50 (BT-549): 29.4 µM (inactive)
- GI50 (LOX IMVI): 25.6 µM (inactive)
- GI50 (KM12): 20 µM (inactive)
- GI50 (CCRF-CEM): 8.17 µM (inactive)
- GI50 (NCI-H460): 28.6 µM (inactive)
- GI50 (RPMI-8226): 13.3 µM (inactive)
- GI50 (PC-3): 21.7 µM (inactive)
- GI50 (TK-10): > 100 µM (inactive)
